ChEMBL document CHEMBL1201862, “PubChem BioAssay data set” (2004)
Active and inactive are the calls of the source.

Experiments:
Fatty acid synthase [1] = biological target: T1, Fatty acid synthase (Homo sapiens, UniProt P49327); assay: FAS thioesterase domain inhibitors, dose response, biochemical, kinetic fluorescence intensity (AID 624326); type: functional;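 note: rate of fluorescence rise from hydrolysis of a fluorogenic O-methyl fluorescein ester substrate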
[2] = biological target: T2, Probable nicotinate-nucleotide adenylyltransferase (Staphylococcus aureus (strain N315), UniProt P65502); type: functional, Staphylococcus aureus subsp. aureus N315; details: read-out: IC50_Mean;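 for IC50 Mean: confirmatory dose-response retesting of NadD inhibitor hits first found in an ultra-high-throughput screen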
[3] = biological target: T3, Dual specificity protein phosphatase 3 (Homo sapiens, UniProt P51452); assay: SAR VHR1 absorbance Assay for In Vitro dose response studies. [Related pubchem assays (depositor defined):AID1654, AID1661, AID1878, AID1992, AID2004]
[4] = biological target: T2, Probable nicotinate-nucleotide adenylyltransferase; type: functional, Staphylococcus aureus subsp. aureus N315
[5] = biological target: T4, Dual specificity protein phosphatase 6 (Rattus norvegicus, UniProt Q64346); type: functional;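 note: confirmatory in vitro dose-response testing of MKP-3 inhibition; recombinant His-tagged MKP-3 made in E. coli BL21 with OMFP substrate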
T4 sequence (Q64346 whole entry): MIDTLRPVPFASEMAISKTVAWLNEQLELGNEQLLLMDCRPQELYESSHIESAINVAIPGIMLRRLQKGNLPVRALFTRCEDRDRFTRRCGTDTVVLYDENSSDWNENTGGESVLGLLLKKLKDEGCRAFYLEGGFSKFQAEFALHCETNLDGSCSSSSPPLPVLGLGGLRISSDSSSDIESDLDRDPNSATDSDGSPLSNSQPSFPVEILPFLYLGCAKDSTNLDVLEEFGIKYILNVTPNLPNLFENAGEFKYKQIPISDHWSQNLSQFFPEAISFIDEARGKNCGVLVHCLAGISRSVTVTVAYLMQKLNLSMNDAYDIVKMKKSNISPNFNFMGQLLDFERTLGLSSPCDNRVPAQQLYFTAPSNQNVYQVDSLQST

Vero = Vero cell cytotoxicity, cytotoxicity control for flavivirus capping enzyme inhibitors (AID 588742); type: functional; details: Chlorocebus sabaeus
Fatty acid synthase [6] = biological target: T1, Fatty acid synthase; assay: FAS thioesterase domain inhibitors, dose response, biochemical, endpoint fluorescence intensity, uHTS hits (AID 624327); type: functional;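 note: fluorescence from hydrolysis of an O-methyl fluorescein acyl ester substrate by the enzyme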
[7] = biological target: T3, Dual specificity protein phosphatase 3; assay: SAR VHR1 Fluorescent Assay for In Vitro dose response studies Set 2. [Related pubchem assays (depositor defined):AID1654, AID1661, AID1878]; type: functional
[8] = biological target: T3, Dual specificity protein phosphatase 3; assay: SAR VHR1 Fluorescent Assay for In Vitro dose response studies. [Related pubchem assays (depositor defined):AID1654, AID1661, AID1878, AID1992, AID2004, AID2070, AID2085]; type: functional
Caspase-6 = biological target: T5, Caspase-6 (Homo sapiens, UniProt P55212); assay: human caspase-6 inhibitors, dose response, biochemical, VEID-R110 fluorescence, cherry-pick (AID 720632)
T5 sequence (P55212 whole entry): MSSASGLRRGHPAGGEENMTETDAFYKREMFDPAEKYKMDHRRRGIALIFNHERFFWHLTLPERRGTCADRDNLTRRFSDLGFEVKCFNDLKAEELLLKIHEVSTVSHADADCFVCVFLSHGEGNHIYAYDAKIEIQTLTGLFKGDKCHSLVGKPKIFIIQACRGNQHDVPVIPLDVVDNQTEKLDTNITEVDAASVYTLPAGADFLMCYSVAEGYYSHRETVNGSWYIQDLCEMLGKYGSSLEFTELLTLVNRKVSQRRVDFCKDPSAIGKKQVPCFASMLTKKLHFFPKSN

[9] = biological target: T6, Apoptotic protease-activating factor 1 (Homo sapiens, UniProt O14727); assay: activation of Apaf-1 mediated apoptosis – fluorescent, uHTS hits, dose response (AID 588554); type: functional
T6 sequence (O14727 whole entry): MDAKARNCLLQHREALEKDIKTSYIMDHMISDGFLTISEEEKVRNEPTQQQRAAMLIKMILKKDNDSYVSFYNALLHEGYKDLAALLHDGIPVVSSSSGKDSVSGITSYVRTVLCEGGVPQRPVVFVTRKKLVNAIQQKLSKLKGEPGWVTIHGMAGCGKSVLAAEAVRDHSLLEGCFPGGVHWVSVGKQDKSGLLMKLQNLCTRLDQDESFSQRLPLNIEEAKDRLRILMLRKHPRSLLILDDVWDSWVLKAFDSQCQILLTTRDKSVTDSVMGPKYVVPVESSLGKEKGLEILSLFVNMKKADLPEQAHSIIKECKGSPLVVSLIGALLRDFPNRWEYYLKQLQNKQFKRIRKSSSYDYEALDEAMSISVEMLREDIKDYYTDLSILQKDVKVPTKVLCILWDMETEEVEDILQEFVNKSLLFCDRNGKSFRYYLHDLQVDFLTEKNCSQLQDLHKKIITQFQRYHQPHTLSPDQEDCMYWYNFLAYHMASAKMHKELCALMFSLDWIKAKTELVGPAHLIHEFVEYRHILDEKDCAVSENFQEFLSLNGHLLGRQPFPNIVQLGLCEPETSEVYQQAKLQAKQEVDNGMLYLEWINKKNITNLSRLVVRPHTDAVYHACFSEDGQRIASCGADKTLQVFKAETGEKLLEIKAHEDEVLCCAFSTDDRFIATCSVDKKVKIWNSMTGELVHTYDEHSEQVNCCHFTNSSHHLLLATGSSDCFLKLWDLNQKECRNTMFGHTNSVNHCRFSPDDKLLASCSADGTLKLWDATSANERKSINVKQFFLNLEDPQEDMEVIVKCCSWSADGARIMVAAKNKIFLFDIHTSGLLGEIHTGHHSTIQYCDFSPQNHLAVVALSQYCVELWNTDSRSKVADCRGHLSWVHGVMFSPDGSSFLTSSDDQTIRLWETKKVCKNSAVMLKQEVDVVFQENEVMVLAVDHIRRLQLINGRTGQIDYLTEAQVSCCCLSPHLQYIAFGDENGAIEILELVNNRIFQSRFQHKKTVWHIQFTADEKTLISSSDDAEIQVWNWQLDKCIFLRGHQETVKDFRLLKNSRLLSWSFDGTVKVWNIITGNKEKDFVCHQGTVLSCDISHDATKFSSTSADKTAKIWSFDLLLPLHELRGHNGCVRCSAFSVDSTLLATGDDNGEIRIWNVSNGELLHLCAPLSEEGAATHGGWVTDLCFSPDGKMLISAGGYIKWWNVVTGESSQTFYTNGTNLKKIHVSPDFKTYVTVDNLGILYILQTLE

Protein RecA = biological target: T7, Protein RecA (Mycobacterium tuberculosis, UniProt P9WHJ3); assay: Fluorescence Cell-Free Homogeneous Dose Retest to Identify Inhibitors of RecA-Intein Splicing Activity. [Related pubchem assays (depositor defined):AID2097, AID2223, AID489010, AID492950]; type: functional
T7 sequence (P9WHJ3 whole entry): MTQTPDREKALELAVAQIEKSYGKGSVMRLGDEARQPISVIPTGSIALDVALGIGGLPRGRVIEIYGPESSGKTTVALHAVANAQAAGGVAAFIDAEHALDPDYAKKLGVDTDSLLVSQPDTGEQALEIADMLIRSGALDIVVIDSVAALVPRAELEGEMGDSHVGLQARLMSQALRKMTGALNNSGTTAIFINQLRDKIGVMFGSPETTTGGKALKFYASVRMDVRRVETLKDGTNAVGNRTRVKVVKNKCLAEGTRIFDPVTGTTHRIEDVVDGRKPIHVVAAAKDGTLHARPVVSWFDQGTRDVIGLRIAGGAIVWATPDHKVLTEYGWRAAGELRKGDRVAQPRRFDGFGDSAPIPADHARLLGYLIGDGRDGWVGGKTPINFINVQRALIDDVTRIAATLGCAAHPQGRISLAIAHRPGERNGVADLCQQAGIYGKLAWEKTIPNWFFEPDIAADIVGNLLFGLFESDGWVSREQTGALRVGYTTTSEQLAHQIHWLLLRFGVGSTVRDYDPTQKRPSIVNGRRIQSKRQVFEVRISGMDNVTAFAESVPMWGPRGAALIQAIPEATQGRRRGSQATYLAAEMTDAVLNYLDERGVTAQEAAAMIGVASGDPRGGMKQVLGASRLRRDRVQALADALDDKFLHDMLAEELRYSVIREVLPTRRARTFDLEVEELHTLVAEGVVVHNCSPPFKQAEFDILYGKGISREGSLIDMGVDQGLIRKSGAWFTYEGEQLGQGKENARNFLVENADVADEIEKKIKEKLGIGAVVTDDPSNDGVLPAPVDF

[10] = biological target: T8, Polyadenylate-binding protein 1 (Homo sapiens, UniProt P11940); assay: PABP1 MLLE–PAM2 binding inhibitor potency, dose response, biochemical, fluorescence polarization, FITC-PAM2 peptide (AID 602259); type: functional; details: read-out: IC50_Mean
[11] = biological target: T8, Polyadenylate-binding protein 1; assay: PABP1 MLLE–PAM2 interaction inhibitors, dose response, miRNA deadenylation inhibitor project, biochemical, fluorescence polarization, Cy5-PAM2 peptide, secondary (AID 602260); type: functional; details: read-out: IC50_Mean
[12] = biological target: Glucose-6-phosphate 1-dehydrogenase (Homo sapiens, UniProt P11413); assay: human G6PD enzyme inhibitors, dose response, selectivity assay for P. falciparum G6PD inhibitor project, biochemical, fluorescence (AID 504792); type: functional
[13] = biological target: T9, Replicative DNA helicase DnaB (Mycobacterium tuberculosis, UniProt P9WMR3); assay: DnaB intein splicing inhibitors, dose response, biochemical, cell-free fluorescence (AID 449749); type: functional
T9 sequence (P9WMR3 whole entry): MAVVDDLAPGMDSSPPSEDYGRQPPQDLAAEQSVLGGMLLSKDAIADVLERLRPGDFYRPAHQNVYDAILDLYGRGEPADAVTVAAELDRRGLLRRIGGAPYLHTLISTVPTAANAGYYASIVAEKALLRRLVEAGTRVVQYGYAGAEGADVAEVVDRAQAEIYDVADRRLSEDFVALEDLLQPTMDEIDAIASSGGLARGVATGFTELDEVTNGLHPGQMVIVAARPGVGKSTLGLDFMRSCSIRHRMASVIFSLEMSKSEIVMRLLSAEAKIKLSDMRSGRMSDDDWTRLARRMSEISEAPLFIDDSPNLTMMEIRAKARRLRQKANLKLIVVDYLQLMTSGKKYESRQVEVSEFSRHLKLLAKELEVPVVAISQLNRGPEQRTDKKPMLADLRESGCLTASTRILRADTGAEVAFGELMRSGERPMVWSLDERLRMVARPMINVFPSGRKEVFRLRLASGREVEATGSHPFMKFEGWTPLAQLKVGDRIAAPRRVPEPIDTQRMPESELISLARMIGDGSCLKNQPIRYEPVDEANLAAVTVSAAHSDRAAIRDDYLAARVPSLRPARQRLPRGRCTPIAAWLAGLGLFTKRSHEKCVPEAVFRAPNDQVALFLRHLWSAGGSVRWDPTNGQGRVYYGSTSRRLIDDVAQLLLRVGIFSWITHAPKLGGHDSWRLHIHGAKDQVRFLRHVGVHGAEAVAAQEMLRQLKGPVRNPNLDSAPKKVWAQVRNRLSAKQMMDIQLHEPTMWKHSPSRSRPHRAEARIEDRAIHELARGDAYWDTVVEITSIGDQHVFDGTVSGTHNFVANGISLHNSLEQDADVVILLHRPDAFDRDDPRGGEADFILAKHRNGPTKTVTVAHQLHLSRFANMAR

[14] = biological target: T6, Apoptotic protease-activating factor 1; assay: SAR analysis of small molecule Activators of Apaf-1 in a Fluorescent assay.; type: functional; details: read-out: EC50_Mean
Caspase-7 = Caspase-7 (Homo sapiens, UniProt P55210); assay: human caspase-7 inhibitors, dose response, selectivity assay for caspase-6 inhibitor project, biochemical, DEVD-R110 fluorescence, cherry-pick (AID 743295)
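Throughout, for EC50 Mean: caspase-3 cleavage of fluorogenic Rh110 DEVD substrate downstream of apoptosome activation.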

T3 sequence (P51452 whole entry): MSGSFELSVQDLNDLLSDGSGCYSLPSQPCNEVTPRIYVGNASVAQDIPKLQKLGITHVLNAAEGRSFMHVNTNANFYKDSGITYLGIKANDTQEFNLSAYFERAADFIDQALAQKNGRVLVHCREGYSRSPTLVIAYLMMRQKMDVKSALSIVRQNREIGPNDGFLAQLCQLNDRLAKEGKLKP
T1 sequence (P49327 whole entry, the tested form may be a part): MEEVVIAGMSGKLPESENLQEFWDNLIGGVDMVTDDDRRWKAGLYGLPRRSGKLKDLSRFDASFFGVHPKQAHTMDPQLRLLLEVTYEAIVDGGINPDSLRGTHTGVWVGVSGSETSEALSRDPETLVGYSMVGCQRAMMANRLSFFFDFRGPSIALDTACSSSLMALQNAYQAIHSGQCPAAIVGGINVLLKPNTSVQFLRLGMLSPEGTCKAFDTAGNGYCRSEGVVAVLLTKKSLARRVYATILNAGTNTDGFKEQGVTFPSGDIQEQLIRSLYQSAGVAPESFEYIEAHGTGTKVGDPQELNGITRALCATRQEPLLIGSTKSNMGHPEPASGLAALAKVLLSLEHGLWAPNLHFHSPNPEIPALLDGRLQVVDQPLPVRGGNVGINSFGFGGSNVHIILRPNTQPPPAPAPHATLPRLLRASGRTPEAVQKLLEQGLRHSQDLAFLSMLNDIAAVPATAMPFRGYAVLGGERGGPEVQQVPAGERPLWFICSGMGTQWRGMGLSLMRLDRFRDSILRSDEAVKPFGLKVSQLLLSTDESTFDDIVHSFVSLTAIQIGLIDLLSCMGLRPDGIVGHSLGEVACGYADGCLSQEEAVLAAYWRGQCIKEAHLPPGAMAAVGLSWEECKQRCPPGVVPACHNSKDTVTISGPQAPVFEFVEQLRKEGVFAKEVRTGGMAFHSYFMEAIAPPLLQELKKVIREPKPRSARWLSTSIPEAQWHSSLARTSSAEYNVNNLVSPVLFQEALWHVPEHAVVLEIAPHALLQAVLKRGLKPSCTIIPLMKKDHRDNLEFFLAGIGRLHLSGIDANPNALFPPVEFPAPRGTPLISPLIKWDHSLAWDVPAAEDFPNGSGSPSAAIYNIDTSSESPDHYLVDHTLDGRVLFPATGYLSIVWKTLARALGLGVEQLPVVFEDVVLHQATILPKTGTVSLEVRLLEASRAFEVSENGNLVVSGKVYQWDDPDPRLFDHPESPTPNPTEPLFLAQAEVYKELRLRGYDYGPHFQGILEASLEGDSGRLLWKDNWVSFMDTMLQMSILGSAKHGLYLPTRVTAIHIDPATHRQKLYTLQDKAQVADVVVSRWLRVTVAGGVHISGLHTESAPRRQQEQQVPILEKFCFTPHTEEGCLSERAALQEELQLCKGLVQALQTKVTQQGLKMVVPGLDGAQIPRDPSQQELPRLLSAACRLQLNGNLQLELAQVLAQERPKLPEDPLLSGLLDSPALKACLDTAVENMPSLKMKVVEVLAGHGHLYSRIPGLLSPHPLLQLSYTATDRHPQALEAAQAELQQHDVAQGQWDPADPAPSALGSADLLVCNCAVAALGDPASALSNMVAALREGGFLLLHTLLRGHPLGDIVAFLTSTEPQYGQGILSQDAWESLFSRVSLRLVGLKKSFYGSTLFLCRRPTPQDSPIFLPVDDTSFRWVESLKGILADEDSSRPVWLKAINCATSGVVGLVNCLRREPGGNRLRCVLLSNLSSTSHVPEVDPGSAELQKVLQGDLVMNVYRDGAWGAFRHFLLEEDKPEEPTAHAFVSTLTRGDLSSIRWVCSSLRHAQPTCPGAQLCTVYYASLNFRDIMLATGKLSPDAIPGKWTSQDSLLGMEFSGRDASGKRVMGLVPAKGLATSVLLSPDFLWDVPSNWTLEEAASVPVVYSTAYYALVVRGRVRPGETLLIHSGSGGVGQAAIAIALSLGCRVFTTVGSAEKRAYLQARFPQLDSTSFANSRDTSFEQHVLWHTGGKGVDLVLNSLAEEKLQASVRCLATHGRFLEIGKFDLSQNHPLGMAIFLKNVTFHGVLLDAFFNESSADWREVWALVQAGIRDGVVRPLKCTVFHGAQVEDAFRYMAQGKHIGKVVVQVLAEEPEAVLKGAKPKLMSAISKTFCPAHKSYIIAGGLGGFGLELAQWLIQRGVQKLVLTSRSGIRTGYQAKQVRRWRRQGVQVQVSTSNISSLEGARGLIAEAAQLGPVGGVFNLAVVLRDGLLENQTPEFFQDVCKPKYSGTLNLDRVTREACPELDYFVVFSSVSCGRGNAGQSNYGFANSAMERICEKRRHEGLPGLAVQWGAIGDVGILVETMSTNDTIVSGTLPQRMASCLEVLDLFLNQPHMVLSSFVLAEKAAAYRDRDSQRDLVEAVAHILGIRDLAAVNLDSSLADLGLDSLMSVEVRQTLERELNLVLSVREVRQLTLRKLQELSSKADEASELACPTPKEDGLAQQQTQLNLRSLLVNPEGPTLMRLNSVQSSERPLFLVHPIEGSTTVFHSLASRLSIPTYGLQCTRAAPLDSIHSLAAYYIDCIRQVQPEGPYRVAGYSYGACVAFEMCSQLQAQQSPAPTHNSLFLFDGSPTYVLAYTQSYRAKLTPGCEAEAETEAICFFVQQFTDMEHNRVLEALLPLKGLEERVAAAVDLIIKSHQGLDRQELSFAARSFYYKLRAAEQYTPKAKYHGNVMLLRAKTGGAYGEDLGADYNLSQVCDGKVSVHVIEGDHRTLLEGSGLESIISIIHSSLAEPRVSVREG
T2 sequence (P65502 whole entry): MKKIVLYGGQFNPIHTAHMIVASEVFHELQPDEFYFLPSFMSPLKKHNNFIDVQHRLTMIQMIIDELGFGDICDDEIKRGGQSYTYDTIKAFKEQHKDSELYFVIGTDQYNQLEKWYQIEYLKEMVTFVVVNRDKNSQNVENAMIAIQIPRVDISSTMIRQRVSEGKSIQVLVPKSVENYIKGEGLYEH
T8 sequence (P11940 whole entry): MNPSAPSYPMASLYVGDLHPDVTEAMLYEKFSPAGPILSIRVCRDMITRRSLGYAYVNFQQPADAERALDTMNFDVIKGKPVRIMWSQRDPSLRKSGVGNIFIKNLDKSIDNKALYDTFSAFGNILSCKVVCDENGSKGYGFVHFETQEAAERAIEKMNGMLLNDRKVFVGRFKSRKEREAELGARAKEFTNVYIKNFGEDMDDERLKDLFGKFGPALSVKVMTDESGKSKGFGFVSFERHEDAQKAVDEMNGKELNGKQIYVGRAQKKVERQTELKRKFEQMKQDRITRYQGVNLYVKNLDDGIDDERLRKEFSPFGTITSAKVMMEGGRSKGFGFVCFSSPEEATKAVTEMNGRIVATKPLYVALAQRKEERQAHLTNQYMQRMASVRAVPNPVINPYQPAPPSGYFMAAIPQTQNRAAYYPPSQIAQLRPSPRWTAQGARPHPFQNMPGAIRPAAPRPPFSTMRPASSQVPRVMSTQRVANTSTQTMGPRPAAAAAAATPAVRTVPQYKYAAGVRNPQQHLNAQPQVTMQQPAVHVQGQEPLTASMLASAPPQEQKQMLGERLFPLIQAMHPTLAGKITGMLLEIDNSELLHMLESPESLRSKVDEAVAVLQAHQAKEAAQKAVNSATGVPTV
Chain of Glucose-6-phosphate 1-dehydrogenase (P11413 whole entry): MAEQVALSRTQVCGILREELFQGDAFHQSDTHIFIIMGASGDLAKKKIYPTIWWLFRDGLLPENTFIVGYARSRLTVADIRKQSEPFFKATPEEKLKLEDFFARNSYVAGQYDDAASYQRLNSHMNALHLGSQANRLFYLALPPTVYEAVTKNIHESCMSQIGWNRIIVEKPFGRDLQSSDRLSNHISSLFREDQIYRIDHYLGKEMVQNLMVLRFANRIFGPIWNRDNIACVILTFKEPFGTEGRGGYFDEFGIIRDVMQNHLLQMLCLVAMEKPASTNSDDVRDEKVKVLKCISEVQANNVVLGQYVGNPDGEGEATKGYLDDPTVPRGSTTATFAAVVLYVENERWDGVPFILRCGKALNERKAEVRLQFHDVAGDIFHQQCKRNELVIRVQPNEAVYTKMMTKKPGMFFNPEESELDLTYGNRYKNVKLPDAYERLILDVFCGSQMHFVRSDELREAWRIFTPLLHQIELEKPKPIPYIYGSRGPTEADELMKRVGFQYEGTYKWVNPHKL
Chain of Caspase-7 (P55210 24-198 limits assumed): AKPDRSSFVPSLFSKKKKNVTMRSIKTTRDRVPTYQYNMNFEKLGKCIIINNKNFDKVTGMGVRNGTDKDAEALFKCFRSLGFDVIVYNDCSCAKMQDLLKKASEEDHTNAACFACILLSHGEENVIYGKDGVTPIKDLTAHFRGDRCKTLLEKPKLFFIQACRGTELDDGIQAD
Chain of Caspase-7 (P55210 207-303 limits assumed): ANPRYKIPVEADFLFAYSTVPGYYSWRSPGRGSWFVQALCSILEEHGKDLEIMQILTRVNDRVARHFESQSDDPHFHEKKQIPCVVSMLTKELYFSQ

Compound	IC50 (Fatty acid synthase [1])	IC50 [2]	IC50 [3]	IC50 [4]	IC50 [5]	CC50 (Vero)	IC50 (Fatty acid synthase [6])	IC50 [7]	IC50 [8]	AC50 (Caspase-6)	EC50 [9]	EC50 (Protein RecA)	IC50 [10]	IC50 [11]	IC50 [12]	AC50 [13]	EC50 [14]	AC50 (Caspase-7)
O=C(O)CSc1cc(C(=O)c2ccccc2O)cn2c(=O)c3c(-c4ccccc4)csc3nc12	4.3 µM (active)	28.4 µM (active)	1.93 µM (active)	7.1 µM (active)	13.2 µM (active)	38.8 µM (active)	4.85 µM (active)	12.3 µM (active)	14.6 µM (active)	–	–	–	–	–	–	–	–	–
CC(CNc1ccccc1O)C(=O)O (stereo not drawn)	–	–	–	–	–	–	–	–	–	3.52 µM (active)	14 µM (active)	7.79 µM (active)	> 66 µM (inactive)	> 66 µM (inactive)	> 80 µM (inactive)	28.7 µM (active)	> 100 µM (inactive)	> 70 µM (inactive)
